Results reported in patent publication US9822147B2, “Methods of treating ophthalmic diseases using NPR-B agonists” (priority 2009, dated 2017).
Like-named read-outs stand apart in the source and are kept apart here. Numbered stars: 1 amine (or outer) side, 2 acyl side, 3 side chain; on linkers, the order of the positions; unused ones are H or OH. Square brackets hold non-standard residues; d marks the D form. Peptide text beside a SMILES is read from it. * marks the point of attachment. X14 = NCC(=O)N[C@@H]1C[C@@H](C(=O)[*:2])N([*:1])C1; Phe(3,4-Cl2) = N[C@@H](Cc1ccc(Cl)c(Cl)c1)C(=O)O; X3 = NCCN[C@@H]1C[C@@H](C(=O)[*:2])N([*:1])C1; Phe(3-Cl) = N[C@@H](Cc1cccc(Cl)c1)C(=O)O; Phe(4-F) = N[C@@H](Cc1ccc(F)cc1)C(=O)O; Pro(4R-NH2) = N[C@H]1CN[C@H](C(=O)O)C1; dLys(Me2) = CN(C)CCCC[C@@H](N)C(=O)O; X19 = O=C(C(CC1CCNCC1)N[*:1])[*:2]; X2 = O=C([C@H]1CCCN([*:1])C1)[*:2]; dDap(Me2) = CN(C)C[C@@H](N)C(=O)O; Hyp = O=C(O)[C@@H]1C[C@@H](O)CN1; NHcycloheptyl = C1CCCC(N*)CC1; NMeL = CN[C@@H](CC(C)C)C(=O)O; Octanoyl = CCCCCCCC(=O)*; Api = NC1(C(=O)O)CCNCC1

Biological target: T1, NPR-B (Homo sapiens, UniProt P20594)
T1 construct: a functional assay using endogenously NPR-B expressing GTM-3 cells; endogenous in cells; host or cells: GTM-3 (human glaucoma trabecular meshwork cells)
T1 sequence (P20594 23-1047): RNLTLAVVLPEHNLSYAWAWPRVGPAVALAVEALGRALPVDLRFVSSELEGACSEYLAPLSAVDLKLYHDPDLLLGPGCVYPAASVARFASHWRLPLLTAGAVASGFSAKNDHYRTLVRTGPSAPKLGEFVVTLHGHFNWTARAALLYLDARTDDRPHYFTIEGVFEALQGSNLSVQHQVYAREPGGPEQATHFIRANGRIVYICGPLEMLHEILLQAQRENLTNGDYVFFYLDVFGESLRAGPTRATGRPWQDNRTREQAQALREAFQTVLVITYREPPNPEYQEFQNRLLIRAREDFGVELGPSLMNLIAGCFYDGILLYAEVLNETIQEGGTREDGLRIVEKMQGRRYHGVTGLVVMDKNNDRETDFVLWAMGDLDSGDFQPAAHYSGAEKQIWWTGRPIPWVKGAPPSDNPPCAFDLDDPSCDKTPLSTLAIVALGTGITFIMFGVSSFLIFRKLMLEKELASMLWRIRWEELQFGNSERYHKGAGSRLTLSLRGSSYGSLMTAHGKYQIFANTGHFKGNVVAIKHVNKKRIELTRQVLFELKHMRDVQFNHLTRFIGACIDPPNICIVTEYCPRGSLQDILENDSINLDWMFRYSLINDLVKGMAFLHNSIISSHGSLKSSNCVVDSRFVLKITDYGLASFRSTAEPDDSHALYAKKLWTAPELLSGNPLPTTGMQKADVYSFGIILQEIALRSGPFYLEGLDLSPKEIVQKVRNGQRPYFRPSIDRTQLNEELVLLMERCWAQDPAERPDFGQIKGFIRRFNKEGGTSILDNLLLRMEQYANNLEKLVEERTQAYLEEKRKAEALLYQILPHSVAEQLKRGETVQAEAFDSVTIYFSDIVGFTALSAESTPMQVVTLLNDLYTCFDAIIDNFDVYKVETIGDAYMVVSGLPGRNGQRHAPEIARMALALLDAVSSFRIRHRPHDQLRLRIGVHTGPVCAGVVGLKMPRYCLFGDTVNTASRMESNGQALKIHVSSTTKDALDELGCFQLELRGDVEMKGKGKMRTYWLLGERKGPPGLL
Experiment: NPR-B induced production of cyclic GMP in human glaucoma trabecular meshwork cells (GTM-3)
Type: cell-based

[1] = group by EC50 and Emax (CNP = 100%), Table 4, read-out: Activity (group), NPR-B activation assayed with GTM-3 cells

SMILES	EC50 [1] [µM]	EC50 [µM]
CCCCCCCC(=O)N1CCCC[C@@H]1C(=O)N(C)[C@@H](Cc1ccccc1)C(=O)N[C@H](CCCNC(=N)N)C(=O)N[C@@H](CC(C)C)C(=O)N1CCC[C@H]1C(=O)N(C)[C@@H](CC(C)C)C(=O)N[C@@H](CC(=O)O)C(=O)N[C@@H](CCCNC(=N)N)C(=O)N[C@H](C(N)=O)[C@@H](C)CC [JAL-1077, Occ-pip-Nmf-arg-Leu-Pro-Nml-Asp-Arg-Ile-NH2] (HELM PEPTIDE1{[CCCCCCCC(=O)[*:2]].[O=C([C@H]1CCCCN1[*:1])[*:2]].[meF].[dR].L.P.[meL].D.R.I.[am]}$$$$V2.0)	< 1	–
CCCCCCCC(=O)N1CCC[C@H](C(=O)N[C@@H](Cc2ccccc2)C(=O)NCC(=O)N[C@@H](CC(C)C)C(=O)N2C[C@H](N)C[C@H]2C(=O)N(C)[C@@H](CC(C)C)C(=O)N[C@@H](CC(=O)O)C(=O)N[C@@H](CCCNC(=N)N)C(=O)N[C@H](C(N)=O)[C@@H](C)CC)C1 [JAL-1320, Occ-Sni-Phe-Gly-Leu-Tap-Nml-Asp-Arg-Ile-NH2] (Octanoyl-[X2]FGL[Pro(4R-NH2)][NMeL]DRI-NH2)	–	< 1
CCCCCCCC(=O)N1CCC[C@H](C(=O)N[C@@H](Cc2ccccc2)C(=O)NC2(C(=O)N[C@@H](CC(C)C)C(=O)N3C[C@H](N)C[C@H]3C(=O)N(C)[C@@H](CC(C)C)C(=O)N[C@@H](CC(=O)O)C(=O)N[C@@H](CCCNC(=N)N)C(=O)N[C@H](C(N)=O)[C@@H](C)CC)CCNCC2)C1 [JAL-1351, Occ-Sni-Phe-Apc-Leu-Tap-Nml-Asp-Arg-Ile-NH2] (Octanoyl-[X2]F[Api]L[Pro(4R-NH2)][NMeL]DRI-NH2)	< 1	–
CCCCCCCC(=O)N1CCC[C@H](C(=O)N[C@@H](Cc2ccccc2)C(=O)NC(CC2CCNCC2)C(=O)N[C@@H](CC(C)C)C(=O)N2C[C@H](O)C[C@H]2C(=O)N(C)[C@@H](CC(C)C)C(=O)N[C@@H](CC(=O)O)C(=O)N[C@@H](CCCNC(=N)N)C(=O)N[C@H](C(N)=O)[C@@H](C)CC)C1 (stereo partly drawn) [JAL-1890, Occ-Sni-Phe-Egg-Leu-Hyp-Nml-Asp-Arg-Ile-NH2] (Octanoyl-[X2]F[X19]L[Hyp][NMeL]DRI-NH2)	< 1	–
CCCCCCCC(=O)N[C@H](C)C(=O)N[C@@H](Cc1ccccc1)C(=O)N[C@H](CN(C)C)C(=O)N[C@@H](CC(C)C)C(=O)N1C[C@H](N)C[C@H]1C(=O)N(C)[C@@H](CC(C)C)C(=O)N[C@@H](CC(=O)O)C(=O)N1CCC[C@H]1C(=O)N[C@H](C(N)=O)[C@@H](C)CC [JAL-1453, Occ-ala-Phe-dap(Me2)-Leu-Tap-Nml-Asp-Pro-Ile-NH2] (Octanoyl-[dA]F[dDap(Me2)]L[Pro(4R-NH2)][NMeL]DPI-NH2)	< 1	–
CCCCCCCC(=O)N1CCC[C@H](C(=O)N[C@@H](Cc2cccc(Cl)c2)C(=O)N[C@H](CC(C)C)C(=O)N[C@@H](CC(C)C)C(=O)N2C[C@H](O)C[C@H]2C(=O)N(C)[C@@H](CC(C)C)C(=O)N[C@@H](CC(=O)O)C(=O)N[C@@H](CCCNC(=N)N)C(=O)N[C@H](C(N)=O)[C@@H](C)CC)C1 [JAL-1618, Occ-Sni-Mcf-leu-Leu-Hyp-Nml-Asp-Arg-Ile-NH2] (Octanoyl-[X2][Phe(3-Cl)][dL]L[Hyp][NMeL]DRI-NH2)	< 1	–
CCCCCCCC(=O)N1CCC[C@H](C(=O)N[C@@H](Cc2ccccc2)C(=O)N[C@H](CN(C)C)C(=O)N[C@@H](CC(C)C)C(=O)N2C[C@H](O)C[C@H]2C(=O)N(C)[C@@H](CC(C)C)C(=O)N[C@@H](CC(=O)O)C(=O)N2CCC[C@H]2C(=O)NC2CCCCCC2)C1 [JAL-1604, Occ-Sni-Phe-dap(Me2)-Leu-Hyp-Nml-Asp-Pro-Che] (Octanoyl-[X2]F[dDap(Me2)]L[Hyp][NMeL]DP-NHcycloheptyl)	< 1	–
CCCCCCCC(=O)N1CCC[C@H](C(=O)N[C@@H](Cc2ccccc2)C(=O)N[C@H](CC(C)C)C(=O)N[C@@H](CC(C)C)C(=O)N2C[C@H](NC(=O)CN)C[C@H]2C(=O)N(C)[C@@H](CC(C)C)C(=O)N[C@@H](CC(=O)O)C(=O)N[C@@H](CCCNC(=N)N)C(=O)N[C@H](C(N)=O)[C@@H](C)CC)C1 [JAL-1322, Occ-Sni-Phe-leu-Leu-Tap(G)-Nml-Asp-Arg-Ile-NH2] (Octanoyl-[X2]F[dL]L[X14][NMeL]DRI-NH2)	< 1	–
CCCCCCCC(=O)N1CCC[C@H](C(=O)N[C@@H](Cc2ccc(F)cc2)C(=O)N[C@H](CC(C)C)C(=O)N[C@@H](CC(C)C)C(=O)N2C[C@H](O)C[C@H]2C(=O)N(C)[C@@H](CC(C)C)C(=O)N[C@@H](CC(=O)O)C(=O)N[C@@H](CCCNC(=N)N)C(=O)N[C@H](C(N)=O)[C@@H](C)CC)C1 [JAL-1487, Occ-Sni-Pff-leu-Leu-Hyp-Nml-Asp-Arg-Ile-NH2] (Octanoyl-[X2][Phe(4-F)][dL]L[Hyp][NMeL]DRI-NH2)	< 1	–
CCCCCCCC(=O)N1CCC[C@H](C(=O)N[C@@H](Cc2ccccc2)C(=O)N[C@H](CC(C)C)C(=O)N[C@@H](CC(C)C)C(=O)N2C[C@H](NCCN)C[C@H]2C(=O)N(C)[C@@H](CC(C)C)C(=O)N[C@@H](CC(=O)O)C(=O)N[C@@H](CCCNC(=N)N)C(=O)NC2CCCCCC2)C1 [JAL-1681, Occ-Sni-Phe-leu-Leu-Tap(Ae)-Nml-Asp-Arg-Che] (Octanoyl-[X2]F[dL]L[X3][NMeL]DR-NHcycloheptyl)	< 1	–
CC[C@H](C)[C@H](NC(=O)[C@H](CCCNC(=N)N)NC(=O)[C@H](CC(=O)O)NC(=O)[C@H](CC(C)C)N(C)C(=O)[C@@H]1C[C@@H](O)CN1C(=O)[C@H](CC(C)C)NC(=O)[C@@H](CC(C)C)NC(=O)[C@H](Cc1ccccc1)NC(=O)[C@H]1CCCN(C(=O)CCCc2ccccc2)C1)C(N)=O [JAL-1605, 1319-Sni-Phe-leu-Leu-Hyp-Nml-Asp-Arg-Ile-NH2] (HELM PEPTIDE1{[O=C(CCCc1ccccc1)[*:2]].[O=C([C@H]1CCCN([*:1])C1)[*:2]].F.[dL].L.[Hyp].[meL].D.R.I.[am]}$$$$V2.0)	< 1	–
CCCCCCCC(=O)N1CCC[C@H](C(=O)N[C@@H](Cc2ccc(Cl)c(Cl)c2)C(=O)N[C@H](CC(C)C)C(=O)N[C@@H](CC(C)C)C(=O)N2C[C@H](O)C[C@H]2C(=O)N(C)[C@@H](CC(C)C)C(=O)N[C@@H](CC(=O)O)C(=O)N2CCC[C@H]2C(=O)NC2CCCCCC2)C1 [JAL-1599, Occ-Sni-Eaa-leu-Leu-Hyp-Nml-Asp-Pro-Che] (Octanoyl-[X2][Phe(3,4-Cl2)][dL]L[Hyp][NMeL]DP-NHcycloheptyl)	< 1	–
CCCCCCCC(=O)N1CCC[C@H](C(=O)N[C@@H](Cc2ccccc2)C(=O)N[C@H](CCCNC(=N)N)C(=O)N[C@@H](CC(C)C)C(=O)N2C[C@H](O)C[C@H]2C(=O)N(C)[C@@H](CC(C)C)C(=O)N[C@@H](CC(=O)O)C(=O)N[C@@H](CCCNC(=N)N)C(=O)N[C@H](C(N)=O)[C@@H](C)CC)C1 [JAL-1255, Occ-Sni-Phe-arg-Leu-Hyp-Nml-Asp-Arg-Ile-NH2] (HELM PEPTIDE1{[CCCCCCCC(=O)[*:2]].[O=C([C@H]1CCCN([*:1])C1)[*:2]].F.[dR].L.[Hyp].[meL].D.R.I.[am]}$$$$V2.0)	< 1	–
CCCCCCCC(=O)N1CCC[C@H](C(=O)N[C@@H](Cc2ccccc2)C(=O)N[C@H](CCCCN(C)C)C(=O)N[C@@H](CC(C)C)C(=O)N2C[C@H](O)C[C@H]2C(=O)N(C)[C@@H](CC(C)C)C(=O)N[C@@H](CC(=O)O)C(=O)N[C@@H](CCCNC(=N)N)C(=O)NC2CCCCCC2)C1 [JAL-1777, Occ-Sni-Phe-lys(Me2)-Leu-Hyp-Nml-Asp-Arg-Che] (Octanoyl-[X2]F[dLys(Me2)]L[Hyp][NMeL]DR-NHcycloheptyl)	< 1	–
CCCCCCCC(=O)N1CCCC2(CCN(C(Cc3ccccc3)C(=O)N[C@H](CC(C)C)C(=O)N[C@@H](CC(C)C)C(=O)N3C[C@H](O)C[C@H]3C(=O)N(C)[C@@H](CC(C)C)C(=O)N[C@@H](CC(=O)O)C(=O)N[C@@H](CCCNC(=N)N)C(=O)N[C@H](C(N)=O)[C@@H](C)CC)C2=O)C1 (stereo partly drawn) [JAL-1765-2, (AR-314-87)-leu-Leu-Hyp-Nml-Asp-Arg-Ile-NH2] (HELM PEPTIDE1{[CCCCCCCC(=O)[*:2]].[O=C1N(C(Cc2ccccc2)C(=O)[*:2])CCC12CCCN([*:1])C2].[dL].L.[Hyp].[meL].D.R.I.[am]}$$$$V2.0)	< 1	–
CCCCCCCC(=O)N1CCC[C@H](C(=O)N[C@@H](Cc2ccccc2)C(=O)N[C@H](CCCNC(=N)N)C(=O)N[C@@H](CC(C)C)C(=O)N2C[C@H](N)C[C@H]2C(=O)N(C)[C@@H](CC(C)C)C(=O)N[C@@H](CC(=O)O)C(=O)N[C@@H](CCCNC(=N)N)C(=O)N[C@H](C(N)=O)[C@@H](C)CC)C1 [JAL-1317, Occ-Sni-Phe-arg-Leu-Tap-Nml-Asp-Arg-Ile-NH2] (Octanoyl-[X2]F[dR]L[Pro(4R-NH2)][NMeL]DRI-NH2)	< 1	–
